{"source": "patent US20210369595A1", "about": "“Cosmetic composition comprising an aqueous extract of rose fruit” (L V M H RECHERCHE, priority 2018, published 2021)", "key": {"[1]": {"tested_on": "Emilin 1 (Emilin1)", "test": "TLDA gene expression in NHF: Emilin1", "assay_type": "cell-based, human", "protocol": "(§1) The cell culture medium is removed and 250 μL of RLT lysis buffer (provided in the Nucleospin RNA trace kit, Macherey-Nagel) is added. The cells are scraped with a Cell Scraper and then the cell lysate is recovered in a 1.2 mL deepwell (provided in the Nucleospin RNA kit). The total RNAs are extracted according to the defined protocols.\n(§2) The total RNA solutions obtained are assayed, and their quality checked, using a microplate reader, the spectrostarNANO (BMG Labtech) coupled to the MicrolabSTAR. This apparatus is connected to the computer controlling the Robotics platform and has the specific software for the analysis of the results (MARS software). The technique requires a 384-well microplate (LoBase), a positive control (RNA 250, AM7155, Thermofisher) to validate the pipetting performed by the robot as well as the values generated by the spectrostarNANO reader. • Synthesis of complementary DNA […]\n(§3) Real-time quantitative PCR can be exploited if its efficiency is between 90% and 110%. For each sample, the number of cycles at which the signal appears is determined by the SDS 2.3 software. […]\n(§4) In the TLDA RT-PCR method, quantification is performed using the comparative method of ΔΔCt. The relative quantification (RQ) values obtained correspond to the amplitude level (x times more or less than the control) of the expression compared with our control, here the non-irradiated. […]"}, "[2]": {"tested_on": "Collagen 3 (COL3A1)", "test": "TLDA gene expression in NHF: COL3A1", "assay_type": "cell-based, human", "protocol": "as §1, §2, §3, §4"}, "[3]": {"tested_on": "Lysyl oxidase like 1 (LOXL1)", "test": "TLDA gene expression in NHF: LOXL1", "assay_type": "cell-based, human", "settings": "Vit C 50 μg/mL (positive control), control = 1", "protocol": "as §1, §2, §3, §4"}, "[4]": {"tested_on": "Fibrillin 1 (FBN1)", "test": "TLDA gene expression in NHF: FBN1", "assay_type": "cell-based, human", "settings": "Vit C 50 μg/mL (positive control), control = 1", "protocol": "as §1, §2, §3, §4"}, "[5]": {"tested_on": "Elastin (ELN)", "test": "TLDA gene expression in NHF: ELN", "assay_type": "cell-based, human", "settings": "Vit C 50 μg/mL (positive control), control = 1", "protocol": "as §1, §2, §3, §4"}, "[6]": {"tested_on": "Collagen 5 (COL5A1)", "test": "TLDA gene expression in NHF: COL5A1", "assay_type": "cell-based, human", "protocol": "as §1, §2, §3, §4"}, "[7]": {"tested_on": "Procollagen C endopeptidase enhancer (PCOLCE)", "test": "TLDA gene expression in NHF: PCOLCE", "assay_type": "cell-based, human", "settings": "Vit C 50 μg/mL (positive control), control = 1", "protocol": "as §1, §2, §3, §4"}, "[8]": {"tested_on": "Collagen 1 (COL1A1)", "test": "TLDA gene expression in normal human fibroblasts (NHF): COL1A1", "assay_type": "cell-based", "protocol": "as §1, §2, §3, §4"}, "[9]": {"tested_on": "Matrix Metalloproteinase 3 (MMP3)", "test": "TLDA gene expression in NHF: MMP3", "assay_type": "cell-based, human", "settings": "Vit C 50 μg/mL (positive control), control = 1", "protocol": "as §1, §2, §3, §4"}, "[10]": {"settings": "Vit C 50 μg/mL (positive control), control = 1"}}, "data": [{"compound": "O=C1O[C@H]([C@@H](O)CO)C(O)=C1O", "note": "[Vit C]", "values": [{"measurement": "Emilin1 expression, RQ", "setting": "[1]; [10]", "value": 2.509}, {"measurement": "increase of Emilin 1 expression", "setting": "[1]; Vit C (50 μg/mL)", "value": "+151%"}, {"measurement": "COL3A1 expression, RQ", "setting": "[2]; [10]", "value": 2.599}, {"measurement": "increase of Collagen 3 expression", "setting": "[2]; Vit C (50 μg/mL)", "value": "+160%"}, {"measurement": "LOXL1 expression, RQ", "setting": "[3]", "value": 1.202}, {"measurement": "FBN1 expression, RQ", "setting": "[4]", "value": 0.989}, {"measurement": "ELN expression, RQ", "setting": "[5]", "value": 1.016}, {"measurement": "COL5A1 expression, RQ", "setting": "[6]; [10]", "value": 1.911}, {"measurement": "increase of Collagen 5 expression", "setting": "[6]; Vit C (50 μg/mL)", "value": "+91%"}, {"measurement": "PCOLCE expression, RQ", "setting": "[7]", "value": 1.156}, {"measurement": "COL1A1 expression, RQ", "setting": "[8]; [10]", "value": 3.471}, {"measurement": "increase of Collagen 1 expression", "setting": "[8]; Vit C (50 μg/mL)", "value": "+247%"}, {"measurement": "MMP3 expression, RQ", "setting": "[9]", "value": 1.205}]}]}
